What was measured:
[1] = test system: 5′ Cy5-labeled acpP target RNA (40 nt); assay: Electrophoretic mobility shift assay (EMSA); type: binding, Salmonella; design: key to mRNA hybridization (EMSA): +++: Effect strength is represented by additional (+) signs.; ++: Effect strength is represented by additional (+) signs.; Effect strength is represented by additional (+) signs; conditions: unconjugated ASO, ASO:RNA 0.3:1 to 2.5:1; for Shift of target mRNA in EMSA (in words): 30 min RT, 15% native PAA gel; for mRNA hybridization (EMSA): summary grade
Protocol: To compare the ability of the unconjugated ASOs to hybridize to the target transcript, we used electrophoretic mobility shift assays (EMSAs), thermal UV melting curves, and microscale thermophoresis (MST). We first conducted EMSAs using a 40 nt target RNA sequence (nt −20 to +20 relative to the acpP translational start codon), which was 5′-labeled with a Cy5 dye. Sequence-specific ASOs were added at defined ASO:RNA ratios, while water or a scrambled PNA (PNAscr) were used as negative controls. We performed these binding studies with unconjugated ASOs, because the KFF carrier peptide is cleaved during transport into the bacterial cytoplasm ([Yavari et al. 2021]). […] The DNA-PTO modification is known to reduce the binding affinity of the ASO to its target RNA ([Chan et al. 2006]), and a 10mer might be too short to mediate interactions under our experimental conditions. To test if an excess of unspecific RNA impacts target binding, we also included samples that contained 1 μg yeast tRNA.
The EMSA was performed with a Cy5 5′-labeled RNA (purchased from Eurofins) encompassing the sequence spanning nucleotides −20 to +20 of acpP relative to the translation start codon. For annealing, TM buffer (10 mM Tris-HCl, 50 mM MgCl2) was used. First, 20 µM RNA was denatured by incubation at 95°C for 5 min followed by placement on ice. Then 1 µL of RNA (spiked with or without 1 µL of yeast tRNA [Ambion at a concentration of 10 mg/mL]) was added to PCR tubes containing 8 µL of water. To this, 1 µL of ASOs at the indicated concentrations (6.25–50 µM) was added to adjust ASO:RNA ratios of 0.3:1 to 2.5:1. As negative control, water was added instead of ASO, while a PNAscr sequence served as sequence-unspecific negative control (Fig. 2; Supplemental Fig. S2). These mixtures were incubated for 30 min at room temperature (RT), followed by the addition of 10 µL 2× gel loading (GL) buffer for subsequent loading on native 15% PAA RNA gel without urea (20 µL/sample; 6 µL of a 50 bp DNA marker + 14 µL 1× GL). The gel was run at 100–120 V for 2–3 h, concomitantly stained with SYBR gold (Thermo Fisher Scientific) for 15 min and imaged on Geldoc (Isogen Life Science B.V.).

[2] = test system: acpP::gfp reporter transcript; assay: In vitro translation of acpP::gfp reporter (PURExpress) with western blot; type: biochemical, Salmonella; design: key to Inhibition of translation in vitro: +++: Effect strength is represented by additional (+) signs.; ++: Effect strength is represented by additional (+) signs.; Effect strength is represented by additional (+) signs; conditions: unconjugated ASO; for Inhibition of in vitro translation of acpP::gfp (in words): western blot of AcpP(1–17)::GFP; for Inhibition of translation in vitro: ASO:RNA 0.6:1 to 5:1, 100 nM RNA, 2 h 37°C, summary grade
Protocol: As a next step, we used a cell-free in vitro translation system ([Popella et al. 2022]) to investigate whether ASO binding to mRNA leads to a block in protein synthesis. As a template, we used the acpP sequence spanning −40 to +51 relative to the AUG start codon fused to a gfp reporter gene (acpP::gfp). This construct was in vitro transcribed, preincubated with different ASOs at different ratios and subsequently translated in vitro. Water was used as a negative control.
For the generation of target RNA::gfp fusion constructs, we used a previously established protocol ([Popella et al. 2022]) and the oligonucleotides JVO-19760/JVO-19761 (Supplemental Table S1) to amplify the genomic region spanning nucleotides –40 to +51 relative to the translational start codon of acpP. The sense oligonucleotide was fused to a T7 promoter sequence for subsequent transcription of the final fusion construct in vitro. The antisense oligonucleotide contained a 30 nt overlapping region with gfp for subsequent fusion PCR with full-length gfp (pXG-10; JVO-19762/JVO-19763) (Supplemental Table S1). The PCR products were purified with NucleoSpin Gel and PCR Clean-up (Macherey-Nagel) according to the manufacturer's instructions, and DNA concentration was quantified with a NanoDrop spectrophotometer (A260 nm).
PCR products were used for T7 RNA polymerase-driven transcription in vitro using the MEGAscript T7 kit (Ambion/Thermo Scientific), according to the manufacturer's instructions and analogous to our previous publication ([Popella et al. 2022]). The concentration of the RNA solution was quantified with Qubit (Fisher Scientific), and the expected product size and RNA integrity were verified on a 6% PAA, 7 M urea gel.
For in vitro translation of target RNA::gfp fusion constructs, the PURExpress In Vitro Protein Synthesis Kit (New England Biolabs, E6800L) was used as described previously ([Popella et al. 2022]). Briefly, the final volume of each in vitro translation reaction was set to 10 µL. One microliter of different concentrations of ASOs ranging from 10 to 0.625 µM was added to 1 µL of in vitro transcribed heat-denatured RNA (1 µM) to adjust the final RNA concentration to 100 nM. The mixtures were preincubated at 37°C for 5 min. Then 4 µL of Solution A and 3 µL of Solution B were added to the preannealed mixtures. After 2 h at 37°C, protein samples were denatured in 1× reducing protein loading buffer (62.6 mM Tris–HCl pH 6.8, 2% SDS, 0.1 mg/mL bromphenol blue, 15.4 mg/mL DTT, 10% glycerol) at 95°C for 5 min.
To visualize in vitro translated proteins, samples were separated on SDS-PAA (12% PAA) gels, with subsequent semi-dry western blot transfer on nitrocellulose membranes. Membranes were blocked with 10% skim milk (in 1× TBS-T) for 1 h and probed with anti-GFP antibody (1:1000; Sigma-Aldrich) in 5% skim milk (in 1× TBS-T) overnight at 4°C. After washing in 1× TBS-T and incubation with an HRP-conjugated secondary antibody (1:5000; Thermo Scientific) in 1× TBS-T, the membrane was incubated with a developing solution kit (Amersham ECL Select Western Blotting Detection Reagent), and protein levels were detected using an ImageQuant LAS 500 (GE Healthcare Life Sciences). Images were processed and band intensities quantified using ImageJ. Protein bands were normalized to the water control.

| Substance | Shift of target mRNA in EMSA (in words) [1] | Inhibition of in vitro translation of acpP::gfp (in words) [2] | mRNA hybridization (EMSA) [1] | Inhibition of translation in vitro [2] |
| --- | --- | --- | --- | --- |
| DNA-PTO: phosphorothioate-modified DNA 10mer ASO, sequence CTCATACTCT, targeting acpP −5 to +5 (DNA, all phosphorothioate, methylation of C not given here) | did not interact with the target mRNA at any of the concentrations tested | did not inhibit protein synthesis |  |  |
| LNA: 2′–4′-locked RNA 10mer ASO, sequence CTCATACTCT, targeting acpP −5 to +5 (all LNA, backbone and methylation of C not given here) | concentration-dependent shift of the target mRNA, starting at a 0.3:1 ratio of ASO:RNA | substantially blocking in vitro translation of acpP::gfp at 1.25× molar excess | +++ | +++ |
| PMO: phosphorodiamidate morpholino 10mer ASO, sequence CTCATACTCT, targeting acpP −5 to +5 (all phosphorodiamidate morpholino (PMO)) | limited binding even at 2.5× excess | less pronounced | + | ++ |
| PNA: peptide nucleic acid 10mer ASO, sequence CTCATACTCT, targeting acpP −5 to +5 (all peptide nucleic acid (PNA)) | concentration-dependent shift of the target mRNA, starting at a 0.3:1 ratio of ASO:RNA | substantially blocking in vitro translation of acpP::gfp at 1.25× molar excess | +++ | +++ |
| RNA-F: 2′-fluorinated RNA 10mer ASO, sequence CTCATACTCT, targeting acpP −5 to +5 (all 2'-fluoro, backbone and T or U not given here) | concentration-dependent shift of the target mRNA, starting at a 0.3:1 ratio of ASO:RNA | less pronounced | ++ | ++ |
| RNA-MOE: 2′-methoxyethylated RNA 10mer ASO, sequence CTCATACTCT, targeting acpP −5 to +5 (all 2'-MOE, backbone and methylation of C not given here) | concentration-dependent shift of the target mRNA, starting at a 0.3:1 ratio of ASO:RNA | substantially blocking in vitro translation of acpP::gfp at 1.25× molar excess | ++ | +++ |
| RNA-OMe: 2′-methylated RNA 10mer ASO, sequence CTCATACTCT, targeting acpP −5 to +5 (all 2'-O-methyl, backbone and T or U not given here) | did not interact with the target mRNA at any of the concentrations tested | less pronounced |  |  |
